Test results: US6958352B2, “Compounds for inhibiting insulin secretion and methods related thereto” (SmithKline Beecham Corporation, priority 2002, dated 2005)
Read-outs that look alike come from different tables or passages of the source.

Target: T1, mitochondrial calcium/sodium antiporter (Rattus norvegicus, UniProt Q6AXS0)
T1 sequence (Q6AXS0 1-585): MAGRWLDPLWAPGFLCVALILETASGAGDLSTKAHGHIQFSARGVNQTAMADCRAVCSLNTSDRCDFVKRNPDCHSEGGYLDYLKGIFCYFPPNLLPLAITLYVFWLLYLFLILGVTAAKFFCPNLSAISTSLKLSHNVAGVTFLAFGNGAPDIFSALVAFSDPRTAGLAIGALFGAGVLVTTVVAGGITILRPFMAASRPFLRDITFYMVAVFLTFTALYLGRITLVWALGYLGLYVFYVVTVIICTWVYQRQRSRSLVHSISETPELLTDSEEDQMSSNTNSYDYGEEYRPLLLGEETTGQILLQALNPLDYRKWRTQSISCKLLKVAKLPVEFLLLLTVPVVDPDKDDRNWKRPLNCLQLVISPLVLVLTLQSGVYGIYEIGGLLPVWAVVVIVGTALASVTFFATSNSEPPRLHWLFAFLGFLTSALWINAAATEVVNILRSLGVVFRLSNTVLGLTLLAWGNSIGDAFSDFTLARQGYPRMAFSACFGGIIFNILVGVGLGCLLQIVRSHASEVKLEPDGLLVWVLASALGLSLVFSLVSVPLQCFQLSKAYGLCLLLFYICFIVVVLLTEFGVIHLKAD
Assay: Inhibition of mitochondrial calcium/sodium antiporter activity (NaCl-induced mitochondrial calcium efflux, calcium green 5N fluorescence)
Type: cell-based
Details: digitonin-permeabilized INS-1 cells, 20 mM NaCl
Method: INS-1 rat insulinoma cells (see Example 16) were harvested by trypsinization, washed and resuspended at 10×10^6 cells/ml in assay buffer (250 mM sucrose, 10 mM HEPES, 2.5 mM K2HPO4, 5 mM succinate, pH 7.4) containing 0.007% digitonin, 60 μM CaCl2 and 0.05 μM calcium green 5N (Molecular Probes, Inc., Eugene, Oreg.). After a five-minute calcium loading incubation, ruthenium red (1 μM; Sigma, St. Louis, Mo.) was added to block further calcium uptake by mitochondria. Cell suspensions were dispensed into 96-well plates (100 μl per well, 1×10^6 cells per well) and candidate agents (i.e., candidate mitochondrial calcium/sodium antiporter inhibitors) were added to some sets of triplicate wells at concentrations of 1, 10 or 100 μM, while other sets of wells provided appropriate control conditions (e.g., buffer and vehicle controls). Baseline fluorescence measurements were made using a multiwell plate fluorimeter (F-MAX™, Molecular Devices Corp., Sunnyvale, Calif.; or PolarStar™, BMG Labtechnologies, Inc., Durham, N.C.) according to the manufacturer's instructions. Calcium efflux from mitochondria was then induced by adding NaCl to all wells to achieve a final concentration of 20 mM, and the rate of change in fluorescence in each well was monitored […] for two minutes and quantified using software included with the plate reader.

[1] = Table 3, more preferred compounds, read-out: IC50 ≦ 1 μM
[2] = Table 2, preferred compounds, read-out: IC50 ≦ 10 μM

Structure (SMILES) | IC50 [1] [nM] | IC50 [2] [nM]
COc1ccc(C(=O)NCCSC(CC(C)C)c2cc(Cl)ccc2N)cc1OC (stereo not shown) [Compound 16aa] | ≤ 1000 | 
COc1cc(C(=O)NCCSC(c2cc(Cl)ccc2N)C(C)C)cc(OC)c1OC (stereo not shown) [Compound 16ab] | ≤ 1000 | 
COc1cc(C(=O)NCCSC(CC(C)C)c2cc(Cl)ccc2N)cc(OC)c1OC (stereo not shown) [Compound 16ac] | ≤ 1000 | 
COc1ccc(C(=O)NCCSC(c2cc(F)ccc2N)C2CCCCC2)cc1OC (stereo not shown) [Compound 16ad] | ≤ 1000 | 
COc1ccc(C(=O)NCCSC(c2ccccc2N)C2CCCCC2)cc1OC (stereo not shown) [Compound 16ae] | ≤ 1000 | 
COc1ccc(CC(=O)NCCSC(c2cc(Cl)ccc2N)c2ccccc2Cl)cc1OC (stereo not shown) [Compound 16b] | ≤ 1000 | ≤ 10000
Nc1ccc(Cl)cc1C(SCCNC(=O)c1ccc(Cl)cc1Cl)c1ccccc1Cl (stereo not shown) [Compound 16c] |  | ≤ 10000
COc1ccc(C(=O)NCCSC(c2cc(Cl)ccc2N)c2ccccc2Cl)cc1OC (stereo not shown) [Compound 16d] | ≤ 1000 | ≤ 10000
Nc1ccc(Cl)cc1C(SCCNC(=O)c1cccc(Br)c1)c1ccccc1Cl (stereo not shown) [Compound 16e] | ≤ 1000 | ≤ 10000
COC1CCC(C(=O)NCCSC(c2cc(Cl)ccc2N)c2ccccc2Cl)CC1 (stereo not shown) [Compound 16f] | ≤ 1000 | ≤ 10000
Nc1ccc(Cl)cc1C(SCCNC(=O)c1ccc([N+](=O)[O-])cc1)c1ccccc1Cl (stereo not shown) [Compound 16g] | ≤ 1000 | ≤ 10000
Nc1ccc(Cl)cc1C(SCCNC(=O)C1CCC1)c1ccccc1Cl (stereo not shown) [Compound 16h] | ≤ 1000 | ≤ 10000
Nc1ccc(Cl)cc1C(SCCNC(=O)C1CCCCC1)c1ccccc1Cl (stereo not shown) [Compound 16i] | ≤ 1000 | ≤ 10000
CC(C)C(=O)NCCSC(c1cc(Cl)ccc1N)c1ccccc1Cl (stereo not shown) [Compound 16j] | ≤ 1000 | ≤ 10000
Nc1ccc(Cl)cc1C(SCCNC(=O)c1cccnc1)c1ccccc1Cl (stereo not shown) [Compound 16k] | ≤ 1000 | ≤ 10000
Nc1ccc(Cl)cc1C(SCCNC(=O)COc1ccccc1)c1ccccc1Cl (stereo not shown) [Compound 16l] | ≤ 1000 | ≤ 10000
Nc1ccc(Cl)cc1C(SCCNC(=O)c1ccccn1)c1ccccc1Cl (stereo not shown) [Compound 16m] | ≤ 1000 | ≤ 10000
COc1ccc(C(=O)NCCSC(c2cc(Cl)ccc2N)C2CCCCC2)cc1OC (stereo not shown) [Compound 16n] | ≤ 1000 | 
COc1cc(C(=O)NCCSC(c2cc(Cl)ccc2N)C2CCCCC2)cc(OC)c1O (stereo not shown) [Compound 16p] |  | ≤ 10000
COc1ccccc1C(=O)NCCSC(c1cc(Cl)ccc1N)C1CCCCC1 (stereo not shown) [Compound 16q] | ≤ 1000 | 
COc1cccc(C(=O)NCCSC(c2cc(Cl)ccc2N)C2CCCCC2)c1 (stereo not shown) [Compound 16r] | ≤ 1000 | 
COc1ccc(C(=O)NCCSC(c2cc(Cl)ccc2N)C2CCCCC2)cc1 (stereo not shown) [Compound 16s] | ≤ 1000 | 
Nc1ccc(Cl)cc1C(SCCNC(=O)c1cccnc1)C1CCCCC1 (stereo not shown) [Compound 16t] | ≤ 1000 | 
Nc1ccc(Cl)cc1C(SCCNC(=O)c1ccncc1)C1CCCCC1 (stereo not shown) [Compound 16u] | ≤ 1000 | 
Nc1ccc(Cl)cc1C(SCCNC(=O)c1cn[nH]c1)C1CCCCC1 (stereo not shown) [Compound 16v] |  | ≤ 10000
Nc1ccc(Cl)cc1C(SCCNC(=O)c1ccc2c(c1)OCO2)C1CCCCC1 (stereo not shown) [Compound 16w] | ≤ 1000 | 
CS(=O)(=O)c1ccc(C(=O)NCCSC(c2cc(Cl)ccc2N)C2CCCCC2)cc1 (stereo not shown) [Compound 16x] | ≤ 1000 | 
Nc1ccc(Cl)cc1C(SCCNC(=O)c1ccc(S(N)(=O)=O)cc1)C1CCCCC1 (stereo not shown) [Compound 16y] |  | ≤ 10000

Structure (SMILES) | IC50 [1] [nM] | IC50 [2] [nM]
COc1ccc(C(=O)NCCSC(c2cc(Cl)ccc2N)C(C)C)cc1OC (stereo not shown) [Compound 16z] | ≤ 1000 | 
Nc1ccc(Cl)cc1C(SCCNC(=O)Nc1cccc(F)c1)c1ccccc1Cl (stereo not shown) [Compound 17a] |  | ≤ 10000
Nc1ccc(Cl)cc1C(SCCNC(=O)Nc1ccccc1OC(F)(F)F)c1ccccc1Cl (stereo not shown) [Compound 17b] | ≤ 1000 | ≤ 10000
Nc1ccc(Cl)cc1C(SCCNC(=O)Nc1cc(F)ccc1F)c1ccccc1Cl (stereo not shown) [Compound 17d] |  | ≤ 10000
Nc1ccc(Cl)cc1C(SCCNC(=O)Nc1cccc(Cl)c1Cl)c1ccccc1Cl (stereo not shown) [Compound 17e] |  | ≤ 10000
COc1ccc(NC(=O)NCCSC(c2cc(Cl)ccc2N)c2ccccc2Cl)c(OC)c1 (stereo not shown) [Compound 17f] | ≤ 1000 | ≤ 10000
COc1ccc(NC(=O)NCCSC(c2cc(Cl)ccc2N)C2CCCCC2)c(OC)c1 (stereo not shown) [Compound 17g] | ≤ 1000 | 
COc1cc(NC(=O)NCCSC(c2cc(Cl)ccc2N)C2CCCCC2)cc(OC)c1OC (stereo not shown) [Compound 17h] | ≤ 1000 | 
COc1cc(NC(=S)NCCSC(c2cc(Cl)ccc2N)C2CCCCC2)cc(OC)c1OC (stereo not shown) [Compound 17i] | ≤ 1000 | 
COc1ccc(NC(=O)NCCSC(c2cc(Cl)ccc2N)C2CCCCC2)cc1OC (stereo not shown) [Compound 17j] | ≤ 1000 | 
COc1ccc(NC(=S)NCCSC(c2cc(Cl)ccc2N)C2CCCCC2)c(OC)c1 (stereo not shown) [Compound 17k] | ≤ 1000 | 
Nc1ccc(Cl)cc1C(SCCNS(=O)(=O)c1ccccc1)c1ccccc1Cl (stereo not shown) [Compound 18b] | ≤ 1000 | ≤ 10000
Nc1ccc(Cl)cc1C(SCCNS(=O)(=O)c1ccccc1[N+](=O)[O-])c1ccccc1Cl (stereo not shown) [Compound 18c] | ≤ 1000 | ≤ 10000
Nc1ccc(Cl)cc1C(SCCNS(=O)(=O)c1ccc(OC(F)(F)F)cc1)c1ccccc1Cl (stereo not shown) [Compound 18d] |  | ≤ 10000
CS(=O)(=O)NCCSC(c1cc(Cl)ccc1N)c1ccccc1Cl (stereo not shown) [Compound 18e] | ≤ 1000 | ≤ 10000
COc1ccc(S(=O)(=O)NCCSC(c2cc(Cl)ccc2N)C2CCCCC2)cc1OC (stereo not shown) [Compound 18f] | ≤ 1000 | 
COc1ccc(S(=O)(=O)NCCSC(c2cc(F)ccc2N)C2CCCCC2)cc1OC (stereo not shown) [Compound 18g] | ≤ 1000 | 
COC(=O)CSCC(c1cc(Cl)ccc1N)c1ccccc1Cl (stereo not shown) [Compound 20a] |  | ≤ 10000
NC(=O)CSCC(c1cc(Cl)ccc1N)c1ccccc1Cl (stereo not shown) [Compound 21a] |  | ≤ 10000
NC(=O)CSCC(c1ccccc1)c1cc(Cl)ccc1N (stereo not shown) [Compound 21d] | ≤ 1000 | ≤ 10000
CNC(=O)CSCC(c1cc(Cl)ccc1N)c1ccccc1Cl (stereo not shown) [Compound 21e] | ≤ 1000 | ≤ 10000
CNC(=O)CSCC(c1cc(Cl)ccc1N)c1ccccc1F (stereo not shown) [Compound 21f] | ≤ 1000 | ≤ 10000
CNC(=O)CSCC(c1cc(Br)ccc1N)c1ccccc1F (stereo not shown) [Compound 21g] |  | ≤ 10000
Cc1noc(CSCC(c2cc(Br)ccc2N)c2ccccc2F)n1 (stereo not shown) [Compound 22c] |  | ≤ 10000
COC(=O)C(c1cccc(Cl)c1)c1ccccc1[N+](=O)[O-] (stereo not shown) [Compound 25a] |  | ≤ 10000
COC(=O)C(c1ccccc1)c1ccccc1[N+](=O)[O-] (stereo not shown) [Compound 25c] |  | ≤ 10000
CNC(=O)C(c1cccc(Cl)c1)c1ccccc1[N+](=O)[O-] (stereo not shown) [Compound 26a] |  | ≤ 10000

Further lines, with some results ahead:

IC50 [1] [nM] | Structure (SMILES) | IC50 [2] [nM]
≤ 1000 | COC(=O)CSCC(c1cc(Cl)ccc1N)c1ccccc1F (stereo not shown) [Compound 20b] | ≤ 10000
≤ 1000 | COC(=O)CSCC(c1cc(Br)ccc1N)c1ccccc1F (stereo not shown) [Compound 20c] | ≤ 10000
≤ 1000 | COC(=O)CSCC(c1ccccc1)c1cc(Cl)ccc1N (stereo not shown) [Compound 20d] | ≤ 10000
≤ 1000 | CNC(=O)CSCC(c1ccccc1)c1cc(Cl)ccc1N (stereo not shown) [Compound 21h] | ≤ 10000
≤ 1000 | Cc1noc(CSCC(c2cc(Cl)ccc2N)c2ccccc2Cl)n1 (stereo not shown) [Compound 22a] | ≤ 10000
≤ 1000 | Cc1noc(CSCC(c2cc(Cl)ccc2N)c2ccccc2F)n1 (stereo not shown) [Compound 22b] | ≤ 10000
≤ 1000 | Cc1noc(CSCC(c2ccccc2)c2cc(Cl)ccc2N)n1 (stereo not shown) [Compound 22d] | ≤ 10000
≤ 1000 | CCOC(=O)C(c1ccccc1C)c1ccccc1[N+](=O)[O-] (stereo not shown) [Compound 25b] | ≤ 10000
≤ 1000 | COC(=O)C(c1ccccc1[N+](=O)[O-])c1cccc2ccccc12 (stereo not shown) [Compound 25d] | ≤ 10000
≤ 1000 | O=C(NCCc1ccccc1)C(c1cccc(Cl)c1)c1ccccc1[N+](=O)[O-] (stereo not shown) [Compound 26b] | ≤ 10000
